Laboratory results taken from patent US20230048132A1, “CYCLIN-DEPENDENT KINASE INHIBITORS” (SPV THERAPEUTICS INC., priority 2018, published 2023).

What was measured:
Experiment in all cases: CDK inhibition assay (microfluidic LabChip, IC50 format)
CDK4-CYCLIND1 = CDK4-CYCLIND1 (Homo sapiens, UniProt P11802); settings: CDK4 CyclinD1 IC50, Table 4a; a second value in parentheses for some compounds
CDK7 CyclinH = CDK7 CyclinH (Homo sapiens, UniProt P50613); assay type: biochemical; settings: Table 4a
CDK9-CYCLINT1 = target: T1, CDK9-CYCLINT1 (Homo sapiens, UniProt P50750); assay type: biochemical; settings: Table 4a; read-out: CDK9 CyclinT1 IC50
T1 construct: purchased Carna

CDK2-CYCLINA = target: T2, CDK2-CYCLINA (Homo sapiens, UniProt P24941); assay type: biochemical; settings: Table 4a; read-out: CDK2 CyclinA IC50
T2 construct: purchased Millipore

CDK6-CYCLIND3 = target: T3, CDK6-CYCLIND3 (Homo sapiens, UniProt Q00534); assay type: biochemical; settings: Table 4a; read-out: CDK6 CyclinD3 IC50
T3 construct: purchased Carna
T3 sequence (Q00534 whole entry): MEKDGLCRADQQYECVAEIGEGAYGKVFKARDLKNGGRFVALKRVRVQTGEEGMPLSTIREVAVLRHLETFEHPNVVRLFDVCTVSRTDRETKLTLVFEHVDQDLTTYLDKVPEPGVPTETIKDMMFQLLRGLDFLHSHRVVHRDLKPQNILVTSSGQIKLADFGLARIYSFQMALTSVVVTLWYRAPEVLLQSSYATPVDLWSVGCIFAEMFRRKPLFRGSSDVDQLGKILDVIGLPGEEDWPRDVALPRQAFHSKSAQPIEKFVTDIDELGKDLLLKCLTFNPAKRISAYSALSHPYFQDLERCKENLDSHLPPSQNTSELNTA
T3 sequence (P30281 whole entry partner): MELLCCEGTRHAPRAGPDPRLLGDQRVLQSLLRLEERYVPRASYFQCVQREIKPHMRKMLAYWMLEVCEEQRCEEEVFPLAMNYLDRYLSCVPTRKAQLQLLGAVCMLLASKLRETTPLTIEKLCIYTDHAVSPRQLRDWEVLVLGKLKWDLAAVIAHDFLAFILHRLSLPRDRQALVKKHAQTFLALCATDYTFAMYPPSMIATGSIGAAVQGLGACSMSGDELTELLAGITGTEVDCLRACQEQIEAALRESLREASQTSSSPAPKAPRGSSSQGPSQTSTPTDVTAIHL

Chain of CDK4-CYCLIND1 (P11802 whole entry): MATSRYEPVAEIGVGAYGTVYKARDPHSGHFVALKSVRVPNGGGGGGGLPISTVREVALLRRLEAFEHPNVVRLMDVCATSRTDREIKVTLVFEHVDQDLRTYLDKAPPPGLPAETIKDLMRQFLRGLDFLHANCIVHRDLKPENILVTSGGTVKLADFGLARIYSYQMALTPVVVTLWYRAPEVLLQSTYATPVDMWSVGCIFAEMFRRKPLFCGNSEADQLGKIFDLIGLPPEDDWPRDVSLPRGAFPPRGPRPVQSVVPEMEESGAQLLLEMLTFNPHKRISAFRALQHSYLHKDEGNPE
Chain of CDK4-CYCLIND1 (P24385 whole entry partner): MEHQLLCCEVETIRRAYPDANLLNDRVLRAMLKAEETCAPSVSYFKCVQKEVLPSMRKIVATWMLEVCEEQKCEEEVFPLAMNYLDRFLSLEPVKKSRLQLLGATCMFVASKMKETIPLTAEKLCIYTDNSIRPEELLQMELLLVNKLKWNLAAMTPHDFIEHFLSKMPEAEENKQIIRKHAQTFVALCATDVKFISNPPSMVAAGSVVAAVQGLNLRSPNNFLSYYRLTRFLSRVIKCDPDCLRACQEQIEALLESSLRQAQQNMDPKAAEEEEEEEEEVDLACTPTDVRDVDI
T1 sequence (P50750 whole entry): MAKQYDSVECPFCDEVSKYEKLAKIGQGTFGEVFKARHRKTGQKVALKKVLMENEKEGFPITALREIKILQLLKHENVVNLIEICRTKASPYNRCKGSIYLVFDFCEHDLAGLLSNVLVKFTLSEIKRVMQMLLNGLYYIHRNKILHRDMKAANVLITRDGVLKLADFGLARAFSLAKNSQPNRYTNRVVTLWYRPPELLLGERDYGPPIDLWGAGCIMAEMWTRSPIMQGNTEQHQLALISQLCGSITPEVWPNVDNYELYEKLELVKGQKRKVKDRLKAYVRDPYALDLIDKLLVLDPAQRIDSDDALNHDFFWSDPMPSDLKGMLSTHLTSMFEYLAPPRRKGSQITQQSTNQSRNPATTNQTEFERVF
T1 sequence (O60563 whole entry partner): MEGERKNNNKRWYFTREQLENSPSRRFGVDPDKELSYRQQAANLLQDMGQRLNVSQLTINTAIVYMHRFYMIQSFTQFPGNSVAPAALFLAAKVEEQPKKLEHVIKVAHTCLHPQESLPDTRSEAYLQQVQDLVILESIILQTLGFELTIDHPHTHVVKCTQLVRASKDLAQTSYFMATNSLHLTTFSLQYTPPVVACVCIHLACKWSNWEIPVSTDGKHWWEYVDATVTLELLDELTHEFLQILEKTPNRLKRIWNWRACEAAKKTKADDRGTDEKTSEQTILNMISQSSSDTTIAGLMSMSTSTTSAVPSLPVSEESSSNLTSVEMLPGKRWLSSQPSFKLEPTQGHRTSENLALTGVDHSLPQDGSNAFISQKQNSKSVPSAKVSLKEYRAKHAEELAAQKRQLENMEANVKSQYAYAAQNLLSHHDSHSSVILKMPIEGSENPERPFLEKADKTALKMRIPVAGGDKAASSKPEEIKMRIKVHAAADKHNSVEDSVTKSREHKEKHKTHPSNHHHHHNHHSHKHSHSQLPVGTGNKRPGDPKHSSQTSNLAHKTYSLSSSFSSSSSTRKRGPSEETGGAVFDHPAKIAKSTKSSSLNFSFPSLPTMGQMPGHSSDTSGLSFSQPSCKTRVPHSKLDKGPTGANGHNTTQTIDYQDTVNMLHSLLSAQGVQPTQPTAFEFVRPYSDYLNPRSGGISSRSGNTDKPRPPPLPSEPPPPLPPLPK
Chain of CDK7 CyclinH (P50613 whole entry): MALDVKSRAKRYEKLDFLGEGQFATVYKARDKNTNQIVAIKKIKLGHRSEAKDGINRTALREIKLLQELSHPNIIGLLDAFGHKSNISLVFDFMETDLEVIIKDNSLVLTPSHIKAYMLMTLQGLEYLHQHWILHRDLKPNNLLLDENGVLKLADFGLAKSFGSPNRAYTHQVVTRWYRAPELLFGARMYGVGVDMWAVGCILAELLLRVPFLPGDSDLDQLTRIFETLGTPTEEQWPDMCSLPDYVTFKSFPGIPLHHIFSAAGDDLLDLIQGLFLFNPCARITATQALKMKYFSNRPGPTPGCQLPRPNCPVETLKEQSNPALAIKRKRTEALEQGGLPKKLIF
Chain of CDK7 CyclinH (P51946 whole entry partner): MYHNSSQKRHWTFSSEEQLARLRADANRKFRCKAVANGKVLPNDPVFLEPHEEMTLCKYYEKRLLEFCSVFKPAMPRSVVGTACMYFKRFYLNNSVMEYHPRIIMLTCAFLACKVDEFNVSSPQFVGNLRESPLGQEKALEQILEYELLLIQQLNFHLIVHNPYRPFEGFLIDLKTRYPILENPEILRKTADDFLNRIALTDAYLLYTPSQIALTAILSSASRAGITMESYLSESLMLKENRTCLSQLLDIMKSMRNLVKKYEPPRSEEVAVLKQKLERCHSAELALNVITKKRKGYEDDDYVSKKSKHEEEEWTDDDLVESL
Chain of CDK7 CyclinH (P51948 whole entry partner): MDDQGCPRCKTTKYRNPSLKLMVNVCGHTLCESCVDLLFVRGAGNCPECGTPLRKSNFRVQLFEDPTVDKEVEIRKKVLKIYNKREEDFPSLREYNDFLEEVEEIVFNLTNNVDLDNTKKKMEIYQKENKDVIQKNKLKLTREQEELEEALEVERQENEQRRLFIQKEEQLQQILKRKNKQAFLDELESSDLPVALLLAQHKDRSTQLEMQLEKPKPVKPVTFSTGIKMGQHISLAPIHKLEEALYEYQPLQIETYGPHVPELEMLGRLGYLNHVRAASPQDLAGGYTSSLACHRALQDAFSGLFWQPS

SMILES	IC50 (CDK4-CYCLIND1)	IC50 (CDK7 CyclinH)	IC50 (CDK9-CYCLINT1)	IC50 (CDK2-CYCLINA)	IC50 (CDK6-CYCLIND3)
O=C1NCC[C@@]12Cc1cnc(Nc3ccc(N4CCNCC4)nc3)nc1N(C1CCCC1)C2=O [Example D149, (S)-8-cyclopentyl-2-((6-(piperazin-1-yl)pyridin-3-yl)amino)-5,8-dihydro-7H-spiro[pyrido[2,3-d]pyrimidine-6,3′-pyrrolidine]-2′,7-dione]	1.22 nM	340 nM	7.52 nM	35.6 nM	2.82 nM
CN1CCN(c2ccc(Nc3ncc4c(n3)N(C3CCCC3)C(=O)[C@]3(CCNC3=O)C4)cn2)CC1 [Example D150, (S)-8-cyclopentyl-2-((6-(4-methylpiperazin-1-yl)pyridin-3-yl)amino)-5,8-dihydro-7H-spiro[pyrido[2,3-d]pyrimidine-6,3′-pyrrolidine]-2′,7-dione]	1.16 nM	402 nM	6.86 nM	52.9 nM	2.34 nM
O=C1NCC[C@@]12Cc1cnc(Nc3ccc(N4CCNCC4)cn3)nc1N(C1CCCC1)C2=O [Example D152, (S)-8-cyclopentyl-2-((5-(piperazin-1-yl)pyridin-2-yl)amino)-5,8-dihydro-7H-spiro[pyrido[2,3-d]pyrimidine-6,3′-pyrrolidine]-2′,7-dione]	1.18 nM	19000 nM	120 nM	1710 nM	1.64 nM
CN1CCN(c2ccc(Nc3ncc4c(n3)N(C3CCCC3)C(=O)[C@]3(CCNC3=O)C4)nc2)CC1 [Example D153, (S)-8-cyclopentyl-2-((5-(4-methylpiperazin-1-yl)pyridin-2-yl)amino)-5,8-dihydro-7H-spiro[pyrido[2,3-d]pyrimidine-6,3′-pyrrolidine]-2′,7-dione]	2.94 nM	18400 nM	316 nM	2440 nM	3.62 nM
CCN1CCN(Cc2ccc(Nc3ncc4c(n3)N(C3CCCC3)C(=O)[C@]3(CCNC3=O)C4)nc2)CC1 [Example D155, (S)-8-cyclopentyl-2-((5-((4-ethylpiperazin-1-yl)methyl)pyridin-2-yl)amino)-5,8-dihydro-7H-spiro[pyrido[2,3-d]pyrimidine-6,3′-pyrrolidine]-2′,7-dione]	6.22 nM	14700 nM	1180 nM	3440 nM	8.58 nM
Cc1cc(Nc2ncc3c(n2)N(C2CCCC2)C(=O)[C@]2(CCNC2=O)C3)ccc1N1CCNCC1 [Example D156, (S)-8-cyclopentyl-2-((3-methyl-4-(piperazin-1-yl)phenyl)amino)-5,8-dihydro-7H-spiro[pyrido[2,3-d]pyrimidine-6,3′-pyrrolidine]-2′,7-dione]	0.92 nM	166 nM	3.91 nM	19.8 nM	2.3 nM
Cc1cc(Nc2ncc3c(n2)N(C2CCCC2)C(=O)[C@]2(CCNC2=O)C3)ccc1N1CCN(C)CC1 [Example D157, (S)-8-cyclopentyl-2-((3-methyl-4-(4-methylpiperazin-1-yl)phenyl)amino)-5,8-dihydro-7H-spiro[pyrido[2,3-d]pyrimidine-6,3′-pyrrolidine]-2′,7-dione]	0.908 nM	164 nM	3.67 nM	18.3 nM	1.51 nM
COc1cc(Nc2ncc3c(n2)N(C2CCCC2)C(=O)[C@]2(CCNC2=O)C3)ccc1N1CCNCC1 [Example D159, (S)-8-cyclopentyl-2-((3-methoxy-4-(piperazin-1-yl)phenyl)amino)-5,8-dihydro-7H-spiro[pyrido[2,3-d]pyrimidine-6,3′-pyrrolidine]-2′,7-dione]	1.62 nM	318 nM	7.34 nM	35 nM	4.47 nM
COc1cc(Nc2ncc3c(n2)N(C2CCCC2)C(=O)[C@]2(CCNC2=O)C3)ccc1N1CCN(C)CC1 [Example D160, (S)-8-cyclopentyl-2-((3-methoxy-4-(4-methylpiperazin-1-yl)phenyl)amino)-5,8-dihydro-7H-spiro[pyrido[2,3-d]pyrimidine-6,3′-pyrrolidine]-2′,7-dione]	1.2 nM	157 nM	6.41 nM	33.5 nM	3.41 nM
COc1cc(Nc2ncc3c(n2)N(C2CCCC2)C(=O)[C@]2(CCNC2=O)C3)ccc1N1CCN(C(C)C)CC1 [Example D161, (S)-8-cyclopentyl-2-((4-(4-isopropylpiperazin-1-yl)-3-methoxyphenyl)amino)-5,8-dihydro-7H-spiro[pyrido[2,3-d]pyrimidine-6,3′-pyrrolidine]-2′,7-dione]	1.29 nM	157 nM	7.27 nM	30.5 nM	3.88 nM
Cc1cc(N2CCNCC2)ccc1Nc1ncc2c(n1)N(C1CCCC1)C(=O)[C@]1(CCNC1=O)C2 [Example D162, (S)-8-cyclopentyl-2-((2-methyl-4-(piperazin-1-yl)phenyl)amino)-5,8-dihydro-7H-spiro[pyrido[2,3-d]pyrimidine-6,3′-pyrrolidine]-2′,7-dione]	5.34 nM	3240 nM	61.9 nM	382 nM	10.4 nM
Cc1cc(N2CCN(C)CC2)ccc1Nc1ncc2c(n1)N(C1CCCC1)C(=O)[C@]1(CCNC1=O)C2 [Example D163, (S)-8-cyclopentyl-2-((2-methyl-4-(4-methylpiperazin-1-yl)phenyl)amino)-5,8-dihydro-7H-spiro[pyrido[2,3-d]pyrimidine-6,3′-pyrrolidine]-2′,7-dione]	9.02 nM	2630 nM	65.1 nM	338 nM	10.6 nM
Cc1cc(N2CCN(C(C)C)CC2)ccc1Nc1ncc2c(n1)N(C1CCCC1)C(=O)[C@]1(CCNC1=O)C2 [Example D164, (S)-8-cyclopentyl-2-((4-(4-isopropylpiperazin-1-yl)-2-methylphenyl)amino)-5,8-dihydro-7H-spiro[pyrido[2,3-d]pyrimidine-6,3′-pyrrolidine]-2′,7-dione]	9.05 nM	3160 nM	71.9 nM	744 nM	13.7 nM
COc1cc(N2CCNCC2)ccc1Nc1ncc2c(n1)N(C1CCCC1)C(=O)[C@]1(CCNC1=O)C2 [Example D165, (S)-8-cyclopentyl-2-((2-methoxy-4-(piperazin-1-yl)phenyl)amino)-5,8-dihydro-7H-spiro[pyrido[2,3-d]pyrimidine-6,3′-pyrrolidine]-2′,7-dione]	29.2 nM	7300 nM	236 nM	775 nM	58.5 nM
COc1cc(N2CCN(C(C)C)CC2)ccc1Nc1ncc2c(n1)N(C1CCCC1)C(=O)[C@]1(CCNC1=O)C2 [Example D167, (S)-8-cyclopentyl-2-((4-(4-isopropylpiperazin-1-yl)-2-methoxyphenyl)amino)-5,8-dihydro-7H-spiro[pyrido[2,3-d]pyrimidine-6,3′-pyrrolidine]-2′,7-dione]	69 nM	12000 nM	418 nM	2900 nM	111 nM
CC(C)n1cc(-c2ccc(Nc3ncc4c(n3)N(C3CCCC3)C(=O)[C@]3(CCNC3=O)C4)nc2)cn1 [Example D170, (S)-8-cyclopentyl-2-((5-(1-isopropyl-1H-pyrazol-4-yl)pyridin-2-yl)amino)-5,8-dihydro-7H-spiro[pyrido[2,3-d]pyrimidine-6,3′-pyrrolidine]-2′,7-dione]	42.3 nM	> 100000 nM	390 nM	8560 nM	53.1 nM
CC(C)N1CC2(CN(c3ccc(Nc4ncc5c(n4)N(C4CCCC4)C(=O)[C@]4(CCNC4=O)C5)nc3)C2)C1 [Example D171, (S)-8-cyclopentyl-2-((5-(6-isopropyl-2,6-diazaspiro[3.3]heptan-2-yl)pyridin-2-yl)amino)-5,8-dihydro-7H-spiro[pyrido[2,3-d]pyrimidine-6,3′-pyrrolidine]-2′,7-dione]	1.98 nM	26500 nM	271 nM	2840 nM	3.78 nM
O=C1NCC[C@@]12Cc1cnc(Nc3ccc(N4CC5(CNC5)C4)cc3)nc1N(C1CCCC1)C2=O [Example D172, (S)-2-((4-(2,6-diazaspiro[3.3]heptan-2-yl)phenyl)amino)-8-cyclopentyl-5,8-dihydro-7H-spiro[pyrido[2,3-d]pyrimidine-6,3′-pyrrolidine]-2′,7-dione]	2.72 nM	673 nM	4.81 nM	79.5 nM	6.6 nM
O=C1NCC[C@@]12Cc1cnc(Nc3ccc(N4CC5(CNC5)C4)c(F)c3)nc1N(C1CCCC1)C2=O [Example D173, (S)-8-cyclopentyl-2-((3-fluoro-4-(2,6-diazaspiro[3.3]heptan-2-yl)phenyl)amino)-5,8-dihydro-7H-spiro[pyrido[2,3-d]pyrimidine-6,3′-pyrrolidine]-2′,7-dione]	5.37 nM	682 nM	5.74 nM	110 nM	11.6 nM
CN(C)[C@H]1CCN(c2ccc(Nc3ncc4c(n3)N(C3CCCC3)C(=O)[C@]3(CCNC3=O)C4)cc2)C1 [Example D174, (S)-8-cyclopentyl-2-((4-((S)-3-(dimethylamino)pyrrolidin-1-yl)phenyl)amino)-5,8-dihydro-7H-spiro[pyrido[2,3-d]pyrimidine-6,3′-pyrrolidine]-2′,7-dione]	1.52 nM	505 nM	6.93 nM	60.9 nM	3.16 nM
